# US10906920B2, “Heterocyclic compounds as immunomodulators” (Incyte Corporation, priority 2018, dated 2021)
# Legend:
# [1] = test system: PD-L1 aAPC/CHO-K1 cells and Jurkat-PD-1-NFAT effector cells; assay: Nuclear factor of activated T-cells (NFAT) assay; assay type: cell-based
# Description: The culture media of PD-L1 aAPC/CHO-K1 cells were first replaced with assay medium (RPMI1640 medium with 1% FBS). […] The assay plate was incubated at 37° C., 5% CO2 for 24 hours. […] After 8 minutes incubation at room temperature, luminescence was read at with Pherastar microplate reader (BMG Labtech). The fold of induction (FOI) was calculated based on the ratio of luminescence normalized to the DMSO wells within each assay plate. The maximum percentage of induction was reported based on the ratio between the highest FOI of each compound and the maximum FOI of control compound within each assay plate. Wells with DMSO were served as the negative controls and wells containing control compound with the highest FOI were used as positive controls. EC50 determination was performed by fitting the curve of percent control activity versus the log of the compound concentration using the GraphPad Prism 6.0 software.
# [2] = test system: U2OS/PD-L1 cells and Jurkat-PD-1-SHP cells; assay: Src homology region 2 domain-containing phosphatase (SHP) assay; assay type: cell-based; conditions: Homo sapiens
# Description: Example B. Src Homology Region 2 Domain-Containing Phosphatase (SHP) Assay
# U2OS/PD-L1 cells (DiscoveRx Corporation) were maintained in McCoy's 5A medium with addition of 10% FBS, 0.25 μg/ml Puromycin. After removing the culture media, the cell medium was replaced with assay medium (RPMI1640 medium with 1% FBS). The U2OS/PD-L1 cells were then added in 384-well black clear bottom assay plate (CELLCOAT® Tissue Culture Plates, Greiner Bio-One) at 5000 cells per well in 20 μL assay medium. Test compounds were prepared by serial dilution in DMSO and 125 nL compound were first transferred to the 384 REMP plate well (Thermofisher) by ECHO liquid handler (Labcyte) followed with addition of 27.5 μL assay medium. 5 μL/well compounds in the assay medium were transferred to the cell plate with 0.05% DMSO in the final assay at 0.25 Jurkat-PD-1-SHP cells (DiscoveRx Corporation) were cultured in RPMI1640 medium supplemented with 10% FBS, 250 μg/ml Hygromycin B, 500 μg/ml G418. After the replacement of culture media with assay medium, 5,000 Jurkat-PD-1-SHP cells in 20 μL were dispensed into each well. The assay plate was incubated at 37° C., 5% CO2 for 2 hours before 2.5 μL PathHunter reagent 1 (DiscoveRx Corporation) were added to each well. […] Chemiluminescent signal was recorded with TopCount reader (Perkin Elmer) after incubation at room temperature for 1 hour. […]
IC50 [2] [nM],SMILES,EC50 [1] [nM]
–,"Cn1c(C(=O)Nc2cccc(-c3cccc(NC(=O)c4nc5c(n4C)CCN(CC(C)(C)C(=O)O)C5)c3Cl)c2Cl)nc2c1CCN(CCC13CCC(C(=O)O)(CC1)C3)C2 [Example 21, 4-(2-(2-((3′-(5-(2-carboxy-2-methylpropyl)-1-methyl-4,5,6,7-tetrahydro-1H-imidazo[4,5-c]pyridine-2-carboxamido)-2,2′-dichloro-[1,1′-biphenyl]-3-yl)carbamoyl)-1-methyl-1,4,6,7-tetrahydro-5H-imidazo[4,5-c]pyridin-5-yl)ethyl)bicyclo[2.2.1]heptane-1-carboxylic acid]",10 to 100
≤ 10,"Cn1c(C(=O)Nc2cccc(-c3cccc(NC(=O)c4nc5c(n4C)CCN(CCC46CCC(C(=O)O)(CC4)C6)C5)c3Cl)c2Cl)nc2c1CCN(CCCCC(=O)O)C2 [Example 63, 4-(2-(2-((3′-(5-(4-carboxybutyl)-1-methyl-4,5,6,7-tetrahydro-1H-imidazo[4,5-c]pyridine-2-carboxamido)-2,2′-dichloro-[1,1′-biphenyl]-3-yl)carbamoyl)-1-methyl-1,4,6,7-tetrahydro-5H-imidazo[4,5-c]pyridin-5-yl)ethyl)bicyclo[2.2.1]heptane-1-carboxylic acid]",–
